According to ChEMBL document CHEMBL4393717, “Development of novel human lactate dehydrogenase A inhibitors: High-throughput screening, synthesis, and biological evaluations” (Eur J Med Chem, 2019):
Calls of active or inactive are those of the source. No cut-off for these calls is given here.

Experiments:
MIA PaCa-2 [1] = test: Antiproliferative activity against human MIAPaCa2 cells assessed as reduction in cell viability incubated for 72 hrs by MTT assay; type: functional, cell-based; details: MIA PaCa-2, 72 h
MIA PaCa-2 [2] = test: Antiproliferative activity against human MIAPaCa2 cells assessed as reduction in cell viability at 50 uM incubated for 72 hrs by MTT assay relative to control; type: functional; details: for inhibition at 50 µM: MIA PaCa-2, 72 h
MCF7 = test: Antiproliferative activity against human MCF7 cells assessed as reduction in cell viability at 50 uM incubated for 72 hrs by MTT assay relative to control; type: functional; details: for inhibition at 50 µM: MCF7, 72 h
[3] = target: T1, L-lactate dehydrogenase A chain (Homo sapiens, UniProt P00338); test: Inhibition of recombinant human full-length N-terminal His-tagged LDHA (1 to 332 residues) expressed in Escherichia coli at 10 uM using sodium pyruvate as substrate incubated for 10 mins relative to control
A549 [4] = test: Antiproliferative activity against human A549 cells assessed as reduction in cell viability at 50 uM incubated for 72 hrs by MTT assay relative to control; type: functional; details: for inhibition at 50 µM: A549, 72 h
[5] = target: T1, L-lactate dehydrogenase A chain; test: Inhibition of recombinant human full-length N-terminal His-tagged LDHA (1 to 332 residues) expressed in Escherichia coli using sodium pyruvate as substrate incubated for 10 mins
A549 [6] = test: Antiproliferative activity against human A549 cells assessed as reduction in cell viability at incubated for 72 hrs by MTT assay; type: functional, cell-based; details: A549, 72 h

| IC50 (MIA PaCa-2 [1]) [µM] | inhibition [3] [%] | EC50 [5] [µM] | IC50 (A549 [6]) [µM] | SMILES | inhibition at 50 µM (MIA PaCa-2 [2]) [%] | inhibition at 50 µM (MCF7) [%] | inhibition at 50 µM (A549 [4]) [%] | inhibition (MIA PaCa-2 [2]) | inhibition (MCF7) | inhibition (A549 [4]) |
| --- | --- | --- | --- | --- | --- | --- | --- | --- | --- | --- |
| > 50 | > 90 | 3.3 | > 50 | O=C(NCC(=O)N1CCCC(Cc2nc(C3CC3)no2)C1)c1ccccc1 (stereo unspecified) | 12.5 | 17.9 | 25.8 | – | – | – |
| > 50 | > 90 | 2.9 | > 50 | Cc1ncn(CC(=O)N2CCC(Oc3cncc(N(C)C)n3)C2)c(=O)c1C (stereo unspecified) | 25.8 | 50.1 | 47.8 | – | – | – |
| > 50 | > 90 | 3.4 | > 50 | COc1cccc(N2CCN(C3CCN(C(=O)c4cnn5c4OCCC5)CC3)CC2)c1 | 12.4 | 17.9 | 25.8 | – | – | – |
| > 50 | > 90 | 0.89 | > 50 | O=C(Cn1cnc2ccccc2c1=O)N1CCN(C(=O)c2cc3n(n2)CCCC3)CC1 | 58.7 | 25.7 | 45.6 | – | – | – |
| > 50 | > 90 | 0.34 | > 50 | Cc1cc(N2CCC(CNS(=O)(=O)c3cccc4cccnc34)CC2)ccn1 | 25.8 | – | 14.7 | – | – | – |
| 3.8 | – | 0.27 | 5.7 | O=C(c1ccco1)N1CCN(Cc2cc(=O)c(OCc3cccc(Cl)c3)co2)CC1 | – | – | – | – | – | – |
| 29.8 | > 90 | 1.2 | 22.7 | CC(=O)c1ccc(NC(=O)COc2cc(C)nc(C3CCC(C)CC3)n2)cc1 (stereo unspecified) | 75.6 | 85.7 | 45.8 | – | – | – |
| > 50 | – | 12.4 | > 50 | O=C(c1ccco1)N1CCN(Cc2cc(=O)c(OCc3ccccc3Cl)co2)CC1 | – | – | – | – | – | – |
| > 50 | – | 5.6 | > 50 | O=C(c1ccco1)N1CCN(Cc2cc(=O)c(OCc3c(F)cccc3Cl)co2)CC1 | – | – | – | – | – | – |
| > 50 | > 90 | 7.8 | > 50 | O=C(CC1CSc2nc3c(cnn3-c3ccccc3)c(=O)n21)NCCCn1ccnc1 (stereo unspecified) | 15.8 | 14.7 | 36.9 | – | – | – |
| > 50 | > 90 | 5.7 | > 50 | Cc1ccccc1OCC(=O)NCc1nn(C2CCCC2)c2c1COCC2 | – | – | – | inactive | inactive | inactive |
| > 50 | > 90 | 4.1 | > 50 | COc1ccccc1OCC(=O)NC1CCC(Oc2nc(C)cc(C)n2)CC1 (stereo unspecified) | 25.7 | 9.7 | 5.9 | – | – | – |
| > 50 | – | 9.7 | > 50 | O=C(c1ccco1)N1CCN(Cc2cc(=O)c(OCc3ccc(F)cc3)co2)CC1 | – | – | – | – | – | – |
| 24.5 | – | 3.7 | 18.9 | O=C(c1ccco1)N1CCN(Cc2cc(=O)c(OCc3cccc(F)c3)co2)CC1 | – | – | – | – | – | – |
| 12.5 | > 90 | 0.68 | 14.7 | O=C(c1ccco1)N1CCN(Cc2cc(=O)c(OCc3ccccc3)co2)CC1 | 95.6 | 93.4 | 84.7 | – | – | – |
| 18900 | – | – | 45800 | NC(=O)C(=O)O [SODIUM OXAMATE] | – | – | – | – | – | – |
| > 50 | > 90 | 2.14 | > 50 | O=C(CCC1CCCCC1)N1CCN(c2ncnc3c2nnn3Cc2ccccc2)CC1 | 21.4 | 22.3 | 45.6 | – | – | – |
| 0.48 | – | – | 0.36 | O=C1N[C@](c2ccc(N3CCOCC3)cc2)(c2ccsc2)CC(O)=C1Sc1ccccc1Cl | – | – | – | – | – | – |
| > 50 | > 90 | 6.4 | > 50 | Cc1ncn(CC(=O)N2CC(Oc3cc(C)n(C4CC4)c(=O)c3)C2)c(=O)c1C | – | 12.3 | 4.5 | – | – | – |
